Patent US20230048576A1, “COMPOUNDS FOR THE TREATMENT OF NEUROPATHIC PAIN” (City of Hope, priority 2019, published 2023)
Converted amounts (≈) assume the structure as drawn.

Assays:
[1] = Solubility of purified LR-90 in different vehicles; format: physicochemical
Method: In order to develop a vehicle formulation for LR-90 for use in humans, 15 different vehicles were tested to measure the solubility of the purified LR-90 (Table 6).

[2] = Survival of animals during the study; format: in vivo, rat
Method: Neuropathic pain was induced by intraperitoneal administration of Taxol at a dose level of 6 mg/kg on study days 0-6 and 12 mg/kg on study days 7-12. Following injection of Taxol animals experienced pain as was assessed using the von Frey test. The development of neuropathic pain was confirmed by measuring mechanical allodynia (Von Frey test) on study day 13 (for inclusion) and on study day 14 (1 hour and 2 hour post dosing) and 24 hour post first dosing.

[3] = Formulation stability in 20% HPβCD in pH 8.0 buffer (HPLC area %); format: physicochemical
[4] = Solubility of purified LR-90 in different vehicles; format: physicochemical; settings: 20% HPβCD in pH 8.0 buffer (w/v); 5 or 10 mg/ml
[5] = 5 mg/ml LR-90 in 20% HPβCD in pH 8.0 buffer
[6] = 10 mg/ml LR-90 in 20% HPβCD in pH 8.0 buffer

CC(C)(Oc1ccc(NC(=O)Nc2ccc(Cc3ccc(NC(=O)Nc4ccc(OC(C)(C)C(=O)O)cc4)c(Cl)c3)cc2Cl)cc1)C(=O)O [LR-90, methylene bis[4,4′-(2-chlorophenylureidophenoxyisobutyric acid)]]
Solubility ([1]; Media: 10% Kolliphor RH40 in water (W/V)): 1220 µg/mL (≈ 1.72 mM)
Solubility ([1]; Media: 10% Solutol in water (W/V)): 1250 µg/mL (≈ 1.76 mM)
Solubility ([1]; Media: 10% TPGS in water (W/V)): 560 µg/mL (≈ 0.789 mM)
Solubility ([1]; Media: 20% Labsol tn water (W/V)): 1650 µg/mL (≈ 2.33 mM)
Solubility ([1]; Media: 30% Captisol in water (W/V)): 1710 µg/mL (≈ 2.41 mM)
Solubility ([1]; Media: 40% HPβCD in water (W/V)): 3660 µg/mL (≈ 5.16 mM)
Solubility ([1]; Media: DMA): >531000 µg/mL
Solubility ([1]; Media: DMSO): >258500 µg/mL
Solubility ([1]; Media: EtOH): >4600 µg/mL
Solubility ([1]; Media: PEG300): >16790 µg/mL
Solubility ([1]; Media: PEG400): >10100 µg/mL
Solubility ([1]; Media: PG): >2270 µg/mL
Solubility ([1]; Media: pH 6.8): 1670 µg/mL (≈ 2.35 mM)
Solubility ([1]; Media: pH 8): 7120 µg/mL (≈ 10 mM)
Survived Animals in % ([2]; 25 mg/kg PO, Group 6, Study Day 13): 100%
Survived Animals in % ([2]; 25 mg/kg PO, Group 6, Study Day 14): 100%
Survived Animals in % ([2]; 25 mg/kg PO, Group 6, Study Day 15): 100%
Survived Animals in % ([2]; 25 mg/kg PO, Group 6, Study Day 16): 100%
Survived Animals in % ([2]; 25 mg/kg PO, Group 6, Study Day 17): 100%
Survived Animals in % ([2]; 25 mg/kg PO, Group 6, Study Day 18): 100%
Survived Animals in % ([2]; 25 mg/kg PO, Group 6, Study Day 19): 100%
Survived Animals in % ([2]; 25 mg/kg PO, Group 6, Study Day 20): 100%
Survived Animals in % ([2]; 25 mg/kg PO, Group 6, Study Day 21): 100%
Survived Animals in % ([2]; 25 mg/kg PO, Group 6, Study Day 22): 100%
Survived Animals in % ([2]; 25 mg/kg PO, Group 6, Study Day 23): 100%
Survived Animals in % ([2]; 25 mg/kg PO, Group 6, Study Day 24): 100%
Survived Animals in % ([2]; 25 mg/kg PO, Group 6, Study Day 25): 75%
Survived Animals in % ([2]; 25 mg/kg PO, Group 6, Study Day 28): 38%
Survived Animals in % ([2]; 50 mg/kg PO, Group 5, Study Day 13): 100%
Survived Animals in % ([2]; 50 mg/kg PO, Group 5, Study Day 14): 100%
Survived Animals in % ([2]; 50 mg/kg PO, Group 5, Study Day 15): 100%
Survived Animals in % ([2]; 50 mg/kg PO, Group 5, Study Day 16): 100%
Survived Animals in % ([2]; 50 mg/kg PO, Group 5, Study Day 17): 100%
Survived Animals in % ([2]; 50 mg/kg PO, Group 5, Study Day 18): 100%
Survived Animals in % ([2]; 50 mg/kg PO, Group 5, Study Day 19): 100%
Survived Animals in % ([2]; 50 mg/kg PO, Group 5, Study Day 20): 100%
Survived Animals in % ([2]; 50 mg/kg PO, Group 5, Study Day 21): 100%
Survived Animals in % ([2]; 50 mg/kg PO, Group 5, Study Day 22): 88%
Survived Animals in % ([2]; 50 mg/kg PO, Group 5, Study Day 23): 88%
Survived Animals in % ([2]; 50 mg/kg PO, Group 5, Study Day 24): 50%
Survived Animals in % ([2]; 50 mg/kg PO, Group 5, Study Day 25): 50%
Survived Animals in % ([2]; 50 mg/kg PO, Group 5, Study Day 28): 38%
Survived Animals in % ([2]; 100 mg/kg PO, Group 4, Study Day 13): 100%
Survived Animals in % ([2]; 100 mg/kg PO, Group 4, Study Day 14): 100%
Survived Animals in % ([2]; 100 mg/kg PO, Group 4, Study Day 15): 100%
Survived Animals in % ([2]; 100 mg/kg PO, Group 4, Study Day 16): 100%
Survived Animals in % ([2]; 100 mg/kg PO, Group 4, Study Day 17): 100%
Survived Animals in % ([2]; 100 mg/kg PO, Group 4, Study Day 18): 100%
Survived Animals in % ([2]; 100 mg/kg PO, Group 4, Study Day 19): 100%
Survived Animals in % ([2]; 100 mg/kg PO, Group 4, Study Day 20): 100%
Survived Animals in % ([2]; 100 mg/kg PO, Group 4, Study Day 21): 100%
Survived Animals in % ([2]; 100 mg/kg PO, Group 4, Study Day 22): 100%
Survived Animals in % ([2]; 100 mg/kg PO, Group 4, Study Day 23): 88%
Survived Animals in % ([2]; 100 mg/kg PO, Group 4, Study Day 24): 63%
Survived Animals in % ([2]; 100 mg/kg PO, Group 4, Study Day 25): 38%
Survived Animals in % ([2]; 100 mg/kg PO, Group 4, Study Day 28): 38%
Final Purity (24 hr) (HPLC area) [3, 5]: 99.20%
Initial Purity (HPLC area) [3, 5]: 99.21%
Final Purity (24 hr) (HPLC area) [3, 6]: 99.14%
Initial Purity (HPLC area) [3, 6]: 99.20%
degradation of the compound ([3]; 20% HPβCD solution, at least for 24 hours): no degradation
dissolution to a solution of the drug target concentration [4]: could be dissolved
